In patent US10307357B2, “Prebiotic oral care compositions containing an alkyl glycoside” (COLGATE-PALMOLIVE COMPANY, priority 2013, dated 2019):

What was measured:
Format in all cases: cell-based
[1] = system: Aggregatibacter actinomycetemcomitans; assay: Mixed culture (dual-species) competition, selective plating; settings: C: with S. salivarius; after only 24 h
Protocol: (§1) The pathogenic species Prevotella intermedia, Aggregatibacter actinomyctemcomitans, Porphyromonas gingivalis, Fusobacterium nucleatum, Streptococcus mutans and beneficial species Streptococcus salivarius are used as model organisms for experiments. Bacterial strains are grown on blood agar plates (Oxoid, Basingstoke, UK) supplemented with 5 μg/ml hemin (Sigma Chemical Co, St. Louis, Mo.), 1 μg/ml menadion and 5% sterile horse blood (Biotrading, Keerbergen, Belgium). Bacteria are collected from blood agar plates and transferred to 10 ml brain heart infusion broth (BHI) (Difco Laboratories, Detroit, Mich.). P. intermedia, P. gingivalis, and F. nucleatum were incubated overnight at 37° C. in an anaerobic atmosphere, A. actinomycetemcomitans, S. mutans and S. salivarius are incubated overnight at 37° C. in a 5% CO2 environment. Bacterial concentration is adjusted by measuring optical density at 600 nm.
(§2) In vitro effect of β-methyl-D-galactoside on pathogens: Bacterial solutions of periodontopathogens, P. intermedia, F. nucleatum, A. actinomycetemcomitans and P. gingivalis, cariogenic species S. mutans and beneficial species, S. salivarius, are prepared of which the optical density was adjusted to 1×10^7 CFU/ml. Experiments are carried out as a dual-species model in 24 well plates containing one pathogen (1 ml) and S. salivarius (1 ml). Different conditions are tested: the two microorganisms with (C) or without (D) β-methyl-D-galactoside (200 μl, dissolved in AD (aqua distillata)), only the periodontopathogen with (B) or without (A) β-methyl-D-galactoside (200 μl). β-methyl-D-galactoside is used at a final concentration of 1 mg/ml. When S. salivarius is not added to the mixture, BHI is added to obtain an equal volume. When β-methyl-D-galactoside is not added to the mixture, AD was added to obtain an equal volume. Plates are incubated at 37° C. in an anaerobic atmosphere. Selective microbial plating is carried out at 0 h, 24 h, and 48 h. Selective agar plates are prepared for each bacterium. P. intermedia and P. gingivalis are cultured on CDC anaerobe 5% sheep blood agar (Becton Dickinson, Franklin Lakes, N.J.), A. actinomycetemcomitans on Tryptic soy serum bacitracin vancomycin agar (TSBV) (Oxoid, Basingstoke, UK), F. nucleatum on crystal violet erythromycin (CVE) agar (Oxoid, Basingstoke, UK), S. mutans on tryptone yeast extract cystine sucrose bacitracin (TYCSB) agar (Oxoid, Basingstoke, UK) and S. salivarius on Phenylethyl alcohol agar (Becton Dickinson, Franklin Lakes, N.J.).
(§3) Statistical analysis: For statistical analysis of the data, the data are log10 transformed to obtain a normal distribution. A linear mixed model is built to assess differences between treatments. A correction for multiple hypothesis testing is carried out.

Fusobacterium nucleatum = assay: as above; settings: C: with S. salivarius; after 48 h
Protocol: as §1, §2, §3

Porphyromonas gingivalis = assay: as above; settings: C: with S. salivarius; after only 24 h
Protocol: as §1, §2, §3

Prevotella intermedia = assay: as above; settings: C: with S. salivarius; after 48 h
Protocol: as §1, §2, §3

Streptococcus mutans = assay: as above; settings: β-methyl-D-galactoside and S. salivarius present; p=0.9999
Protocol: as §1, §2, §3

[2] = system: beneficial oral and pathogenic oral bacteria; assay: Twenty-four hour optical density, conclusion over the panel; settings: at concentrations of 10, 20 and 25 μmol/ml; threshold 1.25
Description: Substrates that were able to increase the growth (or maximal growth density or extent of growth) of at least one of the above beneficial bacteria while not or only minimally increasing the growth (or maximal growth density) of the pathogenic bacteria are considered to be prebiotic compounds. The extent of growth of the tested bacteria in response to selected glycosides (β-methyl-D-galactoside and α-methyl-D-galactoside) was investigated by setting up growth curves in a nutritionally rich medium (brain heart infusion broth (BHI), Oxoid), over 24 hours. […] For each combination of bacterium/glycoside, and for each of their respective controls (i.e. the particular bacterium in the nutritionally rich medium with no glycoside), the optical density was measured at 630 nm (OD630) at 0 h and 24 h (Thermo Scientific Multiskan Ascent). Additionally, the OD630 for combinations of bacterium/glycosides grown in a 5% CO2 environment were also measured every hour between 0 h and 9 h. […] For each day and for each combination, the average (mean) of the values obtained (as detailed above) for the four technical replicas was calculated to provide a single value for each combination on each day. […]

periodontopathogens = assay: Mixed culture competition, conclusion over periodontopathogens; settings: S. salivarius and β-methyl-D-galactoside added (C) compared with A, B, after 24 h and 48 hours, p<0.001
Protocol: as §1
In vitro effect of β-methyl-D-galactoside on pathogens: Bacterial solutions of periodontopathogens, P. intermedia, F. nucleatum, A. actinomycetemcomitans and P. gingivalis, cariogenic species S. mutans and beneficial species, S. salivarius, are prepared of which the optical density was adjusted to 1×10^7 CFU/ml. Experiments are carried out as a dual-species model in 24 well plates containing one pathogen (1 ml) and S. salivarius (1 ml). […]

## CO[C@@H]1O[C@H](CO)[C@H](O)[C@H](O)[C@H]1O [β-methyl-D-galactoside]
[1]
  concentration of pathogen, in words: decline in concentration to zero
Fusobacterium nucleatum
  pathogen numbers, in words: significantly lower but remained slightly above zero
Porphyromonas gingivalis
  concentration of pathogen, in words: decline in concentration to zero
Prevotella intermedia
  pathogen numbers, in words: significantly lower but remained slightly above zero
Streptococcus mutans
  reduction of pathogen, in words: no reduction is observed
[2]
  prebiotic effect (extent of growth), in words: exhibited prebiotic effects
periodontopathogens
  number of periodontopathogens, in words: significant decrease
